# Measurements published in PMC5733478, “A Non-imaging High Throughput Approach to Chemical Library Screening at the Unmodified Adenosine-A3 Receptor in Living Cells” (Frontiers in Pharmacology, 2017).
# Structures can show the parent of a compound that is named as a salt.
# Target: T1, human A3AR (Homo sapiens, UniProt P0DMS8)
# T1 construct: expressed in transfected cells
# T1 sequence (P0DMS8 1-318): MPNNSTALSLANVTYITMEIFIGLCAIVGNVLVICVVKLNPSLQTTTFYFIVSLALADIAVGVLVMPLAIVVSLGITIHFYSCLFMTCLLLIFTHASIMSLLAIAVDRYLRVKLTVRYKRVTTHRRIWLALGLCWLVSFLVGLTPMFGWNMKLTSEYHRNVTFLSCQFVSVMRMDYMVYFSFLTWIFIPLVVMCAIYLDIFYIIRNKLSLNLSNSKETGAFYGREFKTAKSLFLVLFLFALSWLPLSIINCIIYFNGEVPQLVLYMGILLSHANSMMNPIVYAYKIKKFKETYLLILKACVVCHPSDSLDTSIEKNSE
# Assay: LOPAC library primary screen: single concentration (10 μM) inhibition of 25 nM CA200645 binding, PHERAstar FS
# Details: not given
row,Compound,% 25 nM CA200645 binding
1,COc1cc(N)c(Cl)cc1C(=O)OCCN1CCCCC1 [ML 10302],105.8 ± 6.4%
2,O=[N+]([O-])/C=C/c1ccc2c(c1)OCO2 [MNS],50.1 ± 14.8%
3,"CCCOC(=O)c1c(-c2ccccc2)nc(CC)c(C(=O)SCC)c1CCC [MRS 1523, reference compound]",57.3 ± 10.9%
4,Cc1nc(N=Nc2ccc(C(=O)O)cc2)c(COP(=O)(O)O)c(C=O)c1O [MRS 2159],83.0 ± 11.6%
5,CNc1ncnc2c1ncn2[C@H]1C[C@H](OP(=O)(O)O)[C@@H](COP(=O)(O)O)O1 [MRS 2179],108.4 ± 2.3%
6,CNCCCC12CCC(c3ccccc31)c1ccccc12 [Maprotiline hydrochloride],93.0 ± 35.9%
7,C[N+](C)(C)CC#CCOC(=O)Nc1cccc(Cl)c1.[Cl-] [McN-A-343],93.8 ± 10.4%
8,"CN(N=O)c1ccc(O)c(O)c1 [Me-3,4-dephostatin]",87.0 ± 11.0%
9,CNC1(C)C2CCC(C2)C1(C)C (stereo not shown) [Mecamylamine hydrochloride],65.4 ± 10.0%
10,Cc1ccc(Cl)c(Nc2ccccc2C(=O)O)c1Cl [Meclofenamic acid sodium],93.6 ± 9.6%
11,COc1ccc2[nH]cc(CCNC(C)=O)c2c1 [Melatonin],106.6 ± 11.6%
12,Cc1cnc(NC(=O)C2=C(O)c3ccccc3S(=O)(=O)N2C)s1 [Meloxicam sodium],93.6 ± 6.8%
13,CC12CC3CC(C)(C1)CC(N)(C3)C2 [Memantine hydrochloride],109.9 ± 10.5%
14,COc1ccc(CCn2nnnc2C2(c3ccc(C)cc3)CC2)cc1 [Mephetyl tetrazole],66.4 ± 18.5%
15,CC(C)NCC(O)c1cc(O)cc(O)c1.CC(C)NCC(O)c1cc(O)cc(O)c1.O=S(=O)(O)O (stereo not shown) [Metaproterenol hemisulfate],102.0 ± 5.4%
16,CN1C[C@H](CNC(=O)OCc2ccccc2)C[C@@H]2c3cccc4c3c(cn4C)C[C@H]21 [Metergoline],94.1 ± 8.5%
17,CN(Cc1cnc2nc(N)nc(N)c2n1)c1ccc(C(=O)N[C@@H](CCC(=O)O)C(=O)O)cc1.O [Methotrexate hydrate],100.1 ± 8.9%
18,COc1ccc(OC)c(C(O)C(C)N)c1 (stereo not shown) [Methoxamine hydrochloride],132.3 ± 57.0%
19,CC[C@@H](CO)NC(=O)[C@@H]1C=C2c3cccc4[nH]cc(c34)C[C@H]2N(C)C1 [Methylergonovine maleate],91.6 ± 8.0%
20,CC[C@@H](CO)NC(=O)[C@@H]1C=C2c3cccc4c3c(cn4C)C[C@H]2N(C)C1 [Methysergide maleate],92.3 ± 21.2%

row,Compound,% 25 nM CA200645 binding
1,CCN(CC)CCNC(=O)c1cc(Cl)c(N)cc1OC.Cl [Metoclopramide hydrochloride],106.5 ± 2.9%
2,Cc1ccccc1N1C(=O)c2cc(S(N)(=O)=O)c(Cl)cc2NC1C (stereo not shown) [Metolazone],90.5 ± 39.1%
3,Cc1cccc(C)c1OCC(C)N.Cl (stereo not shown) [Mexiletene hydrochloride],99.4 ± 6.9%
4,CN1CCN2c3ccccc3Cc3ccccc3C2C1 (stereo not shown) [Mianserin hydrochloride],92.0 ± 7.7%
5,COCC(=O)O[C@]1(CCN(C)CCCc2nc3ccccc3[nH]2)CCc2cc(F)ccc2[C@@H]1C(C)C [Mibefradil dihydrochloride],107.6 ± 26.6%
6,CC#C[C@]1(O)CC[C@H]2[C@@H]3CCC4=CC(=O)CCC4=C3[C@@H](c3ccc(N(C)C)cc3)C[C@@]21C [Mifepristone],83.5 ± 5.2%
7,Cc1[nH]c(=O)c(C#N)cc1-c1ccncc1 [Milrinone],97.0 ± 4.9%
8,CN(C)c1ccc(O)c2c1C[C@H]1C[C@H]3[C@H](N(C)C)C(O)=C(C(N)=O)C(=O)[C@@]3(O)C(O)=C1C2=O [Minocycline hydrochloride],101.7 ± 17.9%
9,Nc1cc(N2CCCCC2)nc(N)[n+]1[O-] [Minoxidil],96.7 ± 6.2%
10,O=C1c2c(O)ccc(O)c2C(=O)c2c(NCCNCCO)ccc(NCCNCCO)c21 [Mitoxantrone],88.5 ± 12.7%
11,NC(=O)c1ncn([C@@H]2O[C@H](CO)[C@@H](O)[C@H]2O)c1O [Mizoribine],101.6 ± 4.8%
12,O=C(NCCN1CCOCC1)c1ccc(Cl)cc1 [Moclobemide],97.8 ± 6.0%
13,CCc1c(C)[nH]c2c1C(=O)C(CN1CCOCC1)CC2 (stereo not shown) [Molindone hydrochloride],91.2 ± 7.2%
14,CCOC(=O)[N-]c1cn(N2CCOCC2)n[o+]1 [Molsidomine],91.8 ± 17.4%
15,O=c1c(O)c(-c2ccc(O)cc2O)oc2cc(O)cc(O)c12 [Morin],72.1 ± 9.6%
16,COc1nc(C)nc(Cl)c1NC1=NCCN1.Cl [Moxonidine hydrochloride],99.1 ± 3.2%
17,Br.NCc1cc(O)no1 [Muscimol hydrobromide],107.5 ± 2.4%
18,O=c1c(O)c(-c2cc(O)c(O)c(O)c2)oc2cc(O)cc(O)c12 [Myricetin],62.7 ± 9.0%
19,CCNc1nc2c(ncn2[C@H]2C[C@H](O)[C@@H](CO)O2)c(=O)[nH]1 [N2-Ethyl-2'-deoxyguanosine],108.7 ± 6.3%
20,Nc1ccc(CCNc2ncnc3c2ncn3[C@@H]2O[C@H](CO)[C@@H](O)[C@H]2O)cc1 [N6-2-(4-Aminophenyl)ethyladenosine],41.0 ± 7.1%

row,Compound,% 25 nM CA200645 binding
1,OC[C@H]1O[C@@H](n2cnc3c(NC4CCCCC4)ncnc32)[C@H](O)[C@@H]1O [N6-Cyclohexyladenosine],92.9 ± 12.9%
2,OC[C@H]1O[C@@H](n2cnc3c(NC4CCCC4)ncnc32)[C@H](O)[C@@H]1O [N6-Cyclopentyladenosine],69.6 ± 6.1%
3,CNc1ncnc2c1ncn2[C@@H]1O[C@H](CO)[C@@H](O)[C@H]1O [N6-Methyladenosine],61.1 ± 11.7%
4,"CN(C)C(=O)N=NC(=O)N(C)C [N,N,N',N'-Tetramethylazodicarboxamide]",95.9 ± 2.2%
5,"NCC(=O)NCCC(c1ccccc1)c1ccccc1 [N-(3,3-Diphenylpropyl)glycinamide]",98.7 ± 7.8%
6,Nc1ccc(N2C(=O)c3ccccc3C2=O)c(Cl)c1 [N-(4-Amino-2-chlorophenyl)phthalimide],91.1 ± 7.1%
7,CC(=O)NCCc1c[nH]c2ccc(O)cc12 [N-Acetyl-5-hydroxytryptamine],100.5 ± 7.6%
8,CC(=O)N[C@@H](CS)C(=O)O [N-Acetyl-L-Cysteine],100.3 ± 0.2%
9,CCN(CC)CCNC(=O)c1ccc(NC(C)=O)cc1.Cl [N-Acetylprocainamide hydrochloride],86.4 ± 17.7%
10,CC(=O)NCCc1c[nH]c2ccccc12 [N-Acetyltryptamine],99.0 ± 14.1%
11,CC(=O)NBr [N-Bromoacetamide],97.9 ± 5.0%
12,CCN1C(=O)C=CC1=O [N-Ethylmaleimide],99.8 ± 13.3%
13,CN1C[C@H](O)[C@@H](O)[C@H](O)[C@H]1CO [N-Methyl-1-deoxynojirimycin],100.7 ± 20.9%
14,CN[C@H](CC(=O)O)C(=O)O [N-Methyl-D-aspartic acid],109.5 ± 4.3%
15,CNC(=O)c1cc2c(cn1)[nH]c1ccccc12 [N-Methyl-beta-carboline-3-carboxamide],84.9 ± 8.4%
16,CNCCc1ccc(O)c(O)c1.Cl [N-Methyldopamine hydrochloride],96.1 ± 15.9%
17,CNCCc1cnc(CCC(c2ccccc2)c2ccccc2)[nH]1.O=C(O)C(=O)O.O=C(O)C(=O)O [N-Methylhistaprodifen dioxalate salt],99.4 ± 7.3%
18,CCCCCCCC/C=C\CCCCCCCC(=O)NCCc1ccc(O)c(O)c1 [N-Oleoyldopamine],53.5 ± 8.3%
19,CCCCCCCC/C=C\CCCCCCCC(=O)NCCO [N-Oleoylethanolamine],98.2 ± 10.8%

# Same assay, conditions: % of 25 nM CA200645 binding in the presence of 10 μM compound, LOPAC full screen, A3AR CHO cells
row,Compound,% Total CA200645 binding
1,"CCCOC(=O)c1c(-c2ccccc2)nc(CC)c(C(=O)SCC)c1CCC [MRS 1523, reference compound]",58.3 ± 11.4%

# Same assay, conditions: % of control wells (1% DMSO and 25 nM CA200645); compounds at 10 µM; whole live cells expressing the A3AR; mean ± SD, three experiments in duplicate
row,Compound,% 25 nM CA200645 binding
1,Cc1ccccc1/C=C/C1=NCCN1 [Metrazoline oxalate],97.1 ± 2.0%
2,Clc1ccc2c(c1)N=C(N1CCNCC1)c1ccccc1N2 [N-Desmethylclozapine],98.4 ± 14.7%

# Same assay, conditions: compounds tested at 10 µM; % of control wells (1% DMSO and 25 nM CA200645); whole live cells expressing the A3AR; mean ± SD, three experiments in duplicate
row,Compound,% 25 nM CA200645 binding
1,CSc1ccc2c(c1)C(N1CCN(C)CC1)Cc1ccccc1S2 (stereo not shown) [Methiothepin mesylate],112.2 ± 9.4%
2,CC[C@H](C)C(=O)O[C@H]1CCC=C2C=C[C@H](C)[C@H](CC[C@@H]3C[C@@H](O)CC(=O)O3)[C@H]21 [Mevastatin],107.1 ± 10.0%
